{"source": "patent US9656951B2", "about": "“Polymorphs of CDDO ethyl ester and uses thereof” (Applied Pharmaceutical Science, Inc., priority 2012, dated 2017)", "key": {"in vivo": {"experiment": "in vivo", "parameters": "species or system mice", "conditions": "mouse, ip, 10 mg/kg", "protocol": "Female CD-I mice were injected ip with 10 mg/kg of the three polymorphs of the compound of Formula I (CDDO ethyl) and methyl 2-cyano-3,12-dioxoIeana-1,9(11)-dien-28-oate (CDDO methyl) in DMSO-cremphor-PBS (1:1:8 weight by weight or volum by volum). Blood samples were collected at 0.083, 0.25, 0.5, 1, 2, 4, 8, and 24 hr post-dose. The levels were quantified by HPLC/MS using compound add to control blood for standard. PK results are shown at Table 3. The systemic exposure of the three polymorphs of the compound of Formula I of CDDO ethyl is higher than that of CDD) methyl. Following is the order: The glassy solid form of CDDO ethyl>Crystalline Form II of CDDO ethyl>Crystalline Form I of CDDO ethyl>CDDO Methyl"}, "[1]": {"experiment": "Stability determination of polymorphs (XRD) at 25° C./60% R.H. and 40° C./75% R.H.", "assay_type": "physicochemical", "protocol": "Other polymorphs of this invention were used similar in the study.\nThe glassy solid Form of the compound of Formula I, prepared as described in Example 4, was test at 25° C./60% R.H. and 40° C./75% R.H for one week."}, "[2]": {"system": "NO production induced by IFN-g in mouse macrophages (RAW 264.7 cells)", "experiment": "Measurement of NO in RAW 264.7 cells induced by IFN-γ", "assay_type": "cell-based", "conditions": "RAW264.7 cells, 10 ng/ml IFN-γ, 48 hours", "protocol": "Assay Protocol Procedures\n1 Maintained RAW264.7 cells in DMEM with 10% FBS at 37° C., 5% CO2.\nInduction of NO in RAW264.7 Cells\n1. The cells were seeded at 1×10^5/well onto 96-well cell culture plate.\n2. After incubation for 2 hours at 37° C. under 5% CO2, the nonadherent cells were removed by aspiration and freshly prepared complete medium with 10 ng/ml IFN-γ and dilluted compounds was added.\n3. Incubated the cells at 37° C. under 5% CO2 for another 48 hours.\nMeasurement of NO in RAW Cells\n1. Centrifuged at 1000 rpm for 5 minutes to collect supernatant medium.\n2. Prepared 1 ml of a 100 μM nitrite solution by diluting the provided 0.1 M Nitrite Standard 1:1,000 in the matrix or buffer used for the experimental samples.\n4. Allowed the Sulfanilamide Solution and NED Solution to equilibrate to room temperature (15-30 minutes).\n5. Added 50 μl of each experimental sample to wells in duplicate.\n6. Used a multichannel pipettor to dispense 50 μl of the Sulfanilamide Solution to all experimental samples and wells containing the dilution series for the Nitrite Standard.\n7. […]\n10. Measured absorbance within 30 minutes in a plate reader with a filter between 520 nm and 550 nm.\nThe inhibitory activities [as measured by the IC50 (nM) value] of Crystalline Form II of the compound of Formula I (CDDO ethyl ester) on NO production induced by IFN-g in mouse macrophages 17 are shown in FIG. 5."}, "[3]": {"conditions": "25° C./60% R.H. and 40° C./75% R.H."}}}
{"compound": "COC(=O)[C@]12CCC(C)(C)C[C@H]1[C@H]1C(=O)C=C3[C@@]4(C)C=C(C#N)C(=O)C(C)(C)[C@@H]4CC[C@@]3(C)[C@]1(C)CC2", "note": "[CDDO Methyl Ester, methyl 2-cyano-3,12-dioxoIeana-1,9(11)-dien-28-oate, reference compound]", "values": [{"measurement": "AUC(0-inf)", "setting": "in vivo; female, CD-I", "result": 1970, "unit": "ng·h/mL"}, {"measurement": "AUC(0-t)", "setting": "in vivo; female, CD-I", "result": 1800, "unit": "ng·h/mL"}, {"measurement": "Cmax", "setting": "in vivo; female, CD-I", "result": 363, "unit": "ng/mL"}, {"measurement": "half-life", "setting": "in vivo; female, CD-I", "result": 6.6, "unit": "h"}, {"measurement": "tmax", "setting": "in vivo; female, CD-I", "result": 0.8, "unit": "h"}]}
{"compound": "ethyl 2-cyano-3,12-dioxoIeana-1,9(11)-dien-28-oate [Crystalline Form I of CDDO ethyl]", "values": [{"measurement": "AUCInf", "setting": "in vivo", "result": 3456, "unit": "ng·h/mL"}, {"measurement": "AUClast", "setting": "in vivo", "result": 3221, "unit": "ng·h/mL"}, {"measurement": "Cmax", "setting": "in vivo", "result": 466, "unit": "ng/mL"}, {"measurement": "t1/2", "setting": "in vivo", "result": 8.3, "unit": "h"}, {"measurement": "tmax", "setting": "in vivo", "result": 0.8, "unit": "h"}]}
{"compound": "ethyl 2-cyano-3,12-dioxoIeana-1,9(11)-dien-28-oate [Crystalline Form II of CDDO ethyl]", "values": [{"measurement": "change of XRD on storage", "setting": "[1]; [3]", "result": "no significant change of XRD"}, {"measurement": "thermodynamic stability compared to other polymorphs", "setting": "[1]; [3]", "result": "most thermodynamically stable crystal form"}, {"measurement": "IC50", "setting": "[2]; listed as Crystalline Form II of the compound of Formula I (CDDO ethyl ester)", "result": 34, "unit": "nM"}, {"measurement": "AUCInf", "setting": "in vivo", "result": 3840, "unit": "ng·h/mL"}, {"measurement": "AUClast", "setting": "in vivo", "result": 3443, "unit": "ng·h/mL"}, {"measurement": "Cmax", "setting": "in vivo", "result": 482, "unit": "ng/mL"}, {"measurement": "t1/2", "setting": "in vivo", "result": 7.3, "unit": "h"}, {"measurement": "tmax", "setting": "in vivo", "result": 0.8, "unit": "h"}]}
{"compound": "ethyl 2-cyano-3,12-dioxoIeana-1,9(11)-dien-28-oate [The glassy solid form of CDDO ethyl]", "values": [{"measurement": "change of XRD on storage", "setting": "[1]; 25° C./60% R.H. and 40° C./75% R.H for one week", "result": "no significant change of XRD"}, {"measurement": "IC50", "setting": "[2]; listed as glassy solid form of the compound of Formula I (CDDO ethyl ester)", "result": 32, "unit": "nM"}, {"measurement": "AUCInf", "setting": "in vivo", "result": 7526, "unit": "ng·h/mL"}, {"measurement": "AUClast", "setting": "in vivo", "result": 4721, "unit": "ng·h/mL"}, {"measurement": "Cmax", "setting": "in vivo", "result": 513, "unit": "ng/mL"}, {"measurement": "t1/2", "setting": "in vivo", "result": 16.1, "unit": "h"}, {"measurement": "tmax", "setting": "in vivo", "result": 0.8, "unit": "h"}]}
